Reference: ChEMBL document CHEMBL1158907, “2,3,4-Tribromopyrrole from the Marine Polychaete Polyphysia crassa” (J Nat Prod, 1990)

Legend:
[1] = system: Bacillus; experiment: Antimicrobial activity against Bacillus at 10 ug/disk after 48 hrs; assay type: functional; details: read-out: IZ
[2] = system: Vibrio; experiment: Antimicrobial activity against Vibrio at 50 ug/disk after 48 hrs; assay type: functional; details: read-out: IZ
[3] = system: Flavobacterium; experiment: Antimicrobial activity against Flavobacterium at 50 ug/disk after 48 hrs; assay type: functional; details: read-out: IZ
[4] = system: Corynebacterium; experiment: Antimicrobial activity against Corynebacterium at 10 ug/disk after 48 hrs; assay type: functional; details: read-out: IZ
[5] = system: Bacillus; experiment: Antimicrobial activity against Bacillus at 50 ug/disk after 48 hrs; assay type: functional; details: read-out: IZ
[6] = system: Corynebacterium; experiment: Antimicrobial activity against Corynebacterium at 50 ug/disk after 48 hrs; assay type: functional; details: read-out: IZ
[7] = system: Alteromonas; experiment: Antimicrobial activity against Alteromonas at 50 ug/disk after 48 hrs; assay type: functional; details: read-out: IZ
[8] = system: Carassius auratus; experiment: Toxicity against goldfish at 500 ug; assay type: organism-based; details: in vivo
[9] = system: Flavobacterium; experiment: Antimicrobial activity against Flavobacterium at 10 ug/disk after 48 hrs; assay type: functional; details: read-out: IZ

**Q.** How did the zone of inhibition at 10 µg/disc [1] turn out when Brc1c[nH]c(Br)c1Br was run?
**A.** Its zone of inhibition at 10 µg/disc is 2 mm.

**Q.** What about the zone of inhibition at 50 µg/disc [2] of the same compound?
**A.** Its zone of inhibition at 50 µg/disc is > 5 mm.

**Q.** What about the zone of inhibition at 50 µg/disc [3] of the same compound?
**A.** The zone of inhibition at 50 µg/disc was > 5 mm.

**Q.** What about the zone of inhibition at 10 µg/disc [4] of the same compound?
**A.** The zone of inhibition at 10 µg/disc was 2 mm.

**Q.** What about the zone of inhibition at 50 µg/disc [5] of the same compound?
**A.** The zone of inhibition at 50 µg/disc was > 5 mm.

**Q.** And the zone of inhibition at 50 µg/disc [6]?
**A.** The zone of inhibition at 50 µg/disc was > 5 mm.

**Q.** And the zone of inhibition at 50 µg/disc [7]?
**A.** Its zone of inhibition at 50 µg/disc is > 5 mm.

**Q.** And the Activity [8]?
**A.** Its Activity is “Non-toxic”.

**Q.** And the zone of inhibition at 10 µg/disc [9]?
**A.** Its zone of inhibition at 10 µg/disc is 2 mm.
